Results from ChEMBL document CHEMBL1134025, “Thiosugars. Part 9: synthesis and biological evaluation of some 4'-thio-L-arabino nucleoside analogues” (2001).
In brackets after ≈: the same amount, converted by molar mass.

Tested on: Vaccinia virus
Assay: Minimum inhibitory concentration required to reduce Vaccinia virus induced cytopathogenicity by 50%
Type: functional
Conditions: Orthopoxvirus vaccinia

**Q.** With `O=c1ccn([C@H]2S[C@@H](CO)[C@H](O)[C@H]2O)c(=O)[nH]1` as the molecule, how does the MIC read?
**A.** The MIC was 400 µg/mL (≈ 1540 µM).

**Q.** Which MIC does the source give for `O=c1ccn([C@@H]2S[C@@H](CO)[C@H](O)[C@H]2O)c(=O)[nH]1` here?
**A.** The MIC was 400 µg/mL (≈ 1540 µM).

**Q.** `Nc1ncnc2c1ncn2[C@@H]1S[C@@H](CO)[C@H](O)[C@H]1O` was tested. Which MIC did it give?
**A.** Its MIC is 400 µg/mL (≈ 1410 µM).

**Q.** How did the MIC turn out when `Nc1ncnc2c1ncn2[C@H]1S[C@@H](CO)[C@H](O)[C@H]1O` was run?
**A.** The MIC was 400 µg/mL (≈ 1410 µM).

**Q.** For `Cc1cn([C@H]2S[C@@H](CO)[C@H](O)[C@H]2O)c(=O)[nH]c1=O`, which MIC is on record?
**A.** The MIC was 400 µg/mL (≈ 1460 µM).

**Q.** For `Cc1cn([C@@H]2S[C@@H](CO)[C@H](O)[C@H]2O)c(=O)[nH]c1=O`, which MIC is on record?
**A.** Its MIC is 400 µg/mL (≈ 1460 µM).

**Q.** How did the MIC turn out when `Nc1ccn(C2S[C@@H](CO)[C@H](O)[C@H]2O)c(=O)n1` (some centres not stated) was run?
**A.** The MIC was 400 µg/mL (≈ 1540 µM).
